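Exposure lasted 48 hours, with cells grown in 96-well plates and compounds tested at five concentrations. TGI is the concentration that stops growth completely.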
How the values were obtained:
Assay in all cases: NCI tumour cell line growth inhibition, 48 h
KM12 colon = tested on: KM12 colon
NCI-H226 lung = tested on: NCI-H226 lung
BT-549 breast = tested on: BT-549 breast
OVCAR-5 ovarian = tested on: OVCAR-5 ovarian
A498 renal = tested on: A498 renal
DU-145 prostate = tested on: DU-145 prostate
OVCAR-8 ovarian = tested on: OVCAR-8 ovarian
IGROV1 ovarian = tested on: IGROV1 ovarian
MALME-3M melanoma = tested on: MALME-3M melanoma
HOP-62 NSCLC = tested on: HOP-62 NSCLC
NCI/ADR-RES ovarian = tested on: NCI/ADR-RES ovarian
786-0 renal = tested on: 786-0 renal
OVCAR-4 ovarian = tested on: OVCAR-4 ovarian
HOP-92 NSCLC = tested on: HOP-92 NSCLC
HCT-116 colon = tested on: HCT-116 colon
OVCAR-3 ovarian = tested on: OVCAR-3 ovarian
ACHN renal = tested on: ACHN renal
NCI-H522 lung = tested on: NCI-H522 lung
UACC-62 melanoma = tested on: UACC-62 melanoma
M14 melanoma = tested on: M14 melanoma
SK-OV-3 ovarian = tested on: SK-OV-3 ovarian
SNB-75 CNS = tested on: SNB-75 CNS
U251 CNS = tested on: U251 CNS
SK-MEL-28 melanoma = tested on: SK-MEL-28 melanoma
SK-MEL-2 melanoma = tested on: SK-MEL-2 melanoma
COLO 205 colon = tested on: COLO 205 colon
SF-295 CNS = tested on: SF-295 CNS
HL-60(TB) leukemia = tested on: HL-60(TB) leukemia
A549 NSCLC = tested on: A549 NSCLC
NCI-H23 lung = tested on: NCI-H23 lung
RXF 393 renal = tested on: RXF 393 renal
CAKI-1 renal = tested on: CAKI-1 renal
T-47D breast = tested on: T-47D breast
SF-268 CNS = tested on: SF-268 CNS
SR leukemia = tested on: SR leukemia
PC-3 prostate = tested on: PC-3 prostate
SW-620 colon = tested on: SW-620 colon
MCF7 breast = tested on: MCF7 breast
MDA-MB-231 breast = tested on: MDA-MB-231 breast
HT29 colon = tested on: HT29 colon
TK-10 renal = tested on: TK-10 renal
SF-539 CNS = tested on: SF-539 CNS
EKVX NSCLC = tested on: EKVX NSCLC
SK-MEL-5 melanoma = tested on: SK-MEL-5 melanoma
SN12C renal = tested on: SN12C renal
HCT-15 colon = tested on: HCT-15 colon
MDA-MB-435 = tested on: MDA-MB-435
HS 578T breast = tested on: HS 578T breast
NCI-H460 lung = tested on: NCI-H460 lung
K-562 leukemia = tested on: K-562 leukemia
MOLT-4 leukemia = tested on: MOLT-4 leukemia
UACC-257 melanoma = tested on: UACC-257 melanoma
RPMI-8226 leukemia = tested on: RPMI-8226 leukemia
LOX IMVI melanoma = tested on: LOX IMVI melanoma
UO-31 renal = tested on: UO-31 renal
SNB-19 CNS = tested on: SNB-19 CNS
CCRF-CEM leukemia = tested on: CCRF-CEM leukemia
MDA-N = tested on: MDA-N

O=[N+]([O-])c1ccc(N2CCC(CCCC3CCN(c4ccc([N+](=O)[O-])cc4[N+](=O)[O-])CC3)CC2)c([N+](=O)[O-])c1
TGI (KM12 colon): 30.7 µM | TGI (NCI-H226 lung): 56.6 µM | TGI (BT-549 breast): 71.8 µM | TGI (OVCAR-5 ovarian): 45.7 µM | TGI (A498 renal): 31.8 µM | TGI (DU-145 prostate): 61.3 µM | TGI (OVCAR-8 ovarian): 33.3 µM | TGI (IGROV1 ovarian): 25.3 µM | TGI (MALME-3M melanoma): 42.4 µM | TGI (HOP-62 NSCLC): 29.5 µM | TGI (NCI/ADR-RES ovarian): 57.7 µM | TGI (786-0 renal): 28.7 µM | TGI (OVCAR-4 ovarian): 33.4 µM | TGI (HOP-92 NSCLC): 26.4 µM | TGI (HCT-116 colon): > 100 µM | TGI (OVCAR-3 ovarian): 34.5 µM | TGI (ACHN renal): 35.4 µM | TGI (NCI-H522 lung): 42.8 µM | TGI (UACC-62 melanoma): 24.4 µM | TGI (M14 melanoma): 26.7 µM | TGI (SK-OV-3 ovarian): 37.5 µM | TGI (SNB-75 CNS): 32.8 µM | TGI (U251 CNS): 29.2 µM | TGI (SK-MEL-28 melanoma): 28.9 µM | TGI (SK-MEL-2 melanoma): 32 µM | TGI (COLO 205 colon): 31.8 µM | TGI (SF-295 CNS): 32.3 µM | TGI (HL-60(TB) leukemia): 35.9 µM | TGI (A549 NSCLC): 31.8 µM | TGI (NCI-H23 lung): 54.3 µM | TGI (RXF 393 renal): 35.4 µM | TGI (CAKI-1 renal): 41.1 µM | TGI (T-47D breast): 29.2 µM | TGI (SF-268 CNS): 42.6 µM | TGI (SR leukemia): 74.7 µM | TGI (PC-3 prostate): 33.7 µM | TGI (SW-620 colon): 57.4 µM | TGI (MCF7 breast): 28.3 µM | TGI (MDA-MB-231 breast): 36 µM | TGI (HT29 colon): 22.2 µM | TGI (TK-10 renal): 32.7 µM | TGI (SF-539 CNS): 36.7 µM | TGI (EKVX NSCLC): 34.3 µM | TGI (SK-MEL-5 melanoma): 30.7 µM | TGI (SN12C renal): > 100 µM | TGI (HCT-15 colon): 41.6 µM | TGI (MDA-MB-435): 26.8 µM | TGI (HS 578T breast): > 100 µM | TGI (NCI-H460 lung): 28.8 µM | TGI (K-562 leukemia): 55.9 µM | TGI (MOLT-4 leukemia): 53.2 µM | TGI (UACC-257 melanoma): 28.9 µM | TGI (RPMI-8226 leukemia): 43.3 µM | TGI (LOX IMVI melanoma): 30.2 µM | TGI (UO-31 renal): 26.9 µM | TGI (SNB-19 CNS): 34.8 µM | TGI (CCRF-CEM leukemia): 35.9 µM | TGI (MDA-N): 30.1 µM

From PubChem BioAssay (NCI)
